The values below come from BindingDB's records for doi:10.1021/jm980217s (Abbott Laboratories, 1998).

This assay in a line: Binding affinity for endothelin B receptor by measuring its ability to displace [125I]-ET-3 from porcine cerebellar tissue.
For the compound `CCCCN(CCCC)C(=O)CN1C[C@H](c2ccc3c(c2)OCO3)[C@@H](C(=O)O)[C@@H]1CCC(CC)CC` [(2S,3R,4S)-4-Benzo[1,3]dioxol-5-yl-1-dibutylcarbamoylmethyl-2-(3-ethyl-pentyl)-pyrrolidine-3-carboxylic acid], the IC50 was 72 µM. `CCCCN(CCCC)C(=O)CN1C[C@H](c2ccc3c(c2)OCO3)[C@@H](C(=O)O)[C@@H]1CCC1CCOCC1` [(2S,3R,4S)-4-Benzo[1,3]dioxol-5-yl-1-dibutylcarbamoylmethyl-2-[2-(tetrahydro-pyran-4-yl)-ethyl]-pyrrolidine-3-carboxylic acid]: the 50% inhibitory concentration (IC50) is > 100 µM. The figure for `CCCCN(CCCC)C(=O)CN1C[C@H](c2ccc3c(c2)OCO3)[C@@H](C(=O)O)[C@@H]1CC(C)CCC` (stereo partly drawn) [(2S,3R,4S)-4-Benzo[1,3]dioxol-5-yl-1-dibutylcarbamoylmethyl-2-(2-methyl-pentyl)-pyrrolidine-3-carboxylic acid] is 71 µM; for `CCCCN(CCCC)C(=O)CN1C[C@H](c2ccc3c(c2)OCO3)[C@@H](C(=O)O)[C@@H]1CC/C=C(/C)CC` [(2S,3R,4S)-4-Benzo[1,3]dioxol-5-yl-1-dibutylcarbamoylmethyl-2-((Z)-4-methyl-hex-3-enyl)-pyrrolidine-3-carboxylic acid] it is 7 µM.
